Experimental findings from US9676757B2, “Heterocyclic compounds as NaV channel inhibitors and uses thereof” (Merck Patent GmbH, priority 2014, dated 2017) are described below.

The target of this test is Nav1.6 (Homo sapiens, UniProt Q9UQD0). Kind of test: Nav two-pulse protocol, IonWorks Quattro electrophysiology. The class given is cell-based. To be noted: -120 mV to 0 mV, compound incubated 300 s. The protocol: Compound Plate Preparation
Supplied compounds were sent as Assay Ready Plates, with 2 μL per well of compound in DMSO at 300× the final assay concentrations as described above and in the project proposal. All assay plates are stored at in a −80° C. freezer.
On the day of the assay, 198 μL of external solution was added to the appropriate assay plate and mixed thoroughly. This provided a 1:100 dilution. A further 1:3 dilution occurred upon addition to the cells in the IonWorks, giving a 1:300 dilution in total.
On each assay plate, at least 8 wells were reserved for vehicle control (0.3% DMSO) and at least 8 wells for each positive control specific to the cell line tested. The positive controls were tested in an 8-point dose response with 3-fold dilutions to determine an IC50 value for each run. The positive control compounds are outlined below.
Ion Channel Positive Control & Concentrations
Nav1.6/1.2 Lidocaine: 8, 3-fold dilutions starting at 100 μM
Electrophysiological Recording Solutions
The solutions for recording currents were are follows:
Amphotericin B was used to obtain electrical access to the cell interior at a final concentration of 200 μg/ml in internal recording solution.
Experimental Protocols & Data Analysis
Nav currents were evoked by stepping from a holding potential of −120 mV to 0 mV for 2.5 s (pulse 1), followed by a 5 ms inter-pulse interval, and stepping from a holding potential of −120 mV to 0 mV for 20 ms (pulse 2). The voltage protocol was applied (Pre), compounds added, incubated for 300 seconds, and the voltage protocol was applied a final time (Post) on the IonWorks Quattro.
The parameters measured were the maximum inward current evoked on stepping to 0 mV from the 1st and 2nd pulse. All data were filtered for seal quality, seal drop, and current amplitude. The peak current amplitude (Peak) was calculated before (Pre) and after (Post) compound addition to the amount of block was assessed by dividing the Post-compound current amplitude by the Pre-compound current amplitude. These procedures were implemented for the 1st and 2nd pulse.

Each structure is given as a SMILES string. Where two headings read alike, the source gives them in different places.

Chain of Nav1.6 (Q9UQD0 whole entry): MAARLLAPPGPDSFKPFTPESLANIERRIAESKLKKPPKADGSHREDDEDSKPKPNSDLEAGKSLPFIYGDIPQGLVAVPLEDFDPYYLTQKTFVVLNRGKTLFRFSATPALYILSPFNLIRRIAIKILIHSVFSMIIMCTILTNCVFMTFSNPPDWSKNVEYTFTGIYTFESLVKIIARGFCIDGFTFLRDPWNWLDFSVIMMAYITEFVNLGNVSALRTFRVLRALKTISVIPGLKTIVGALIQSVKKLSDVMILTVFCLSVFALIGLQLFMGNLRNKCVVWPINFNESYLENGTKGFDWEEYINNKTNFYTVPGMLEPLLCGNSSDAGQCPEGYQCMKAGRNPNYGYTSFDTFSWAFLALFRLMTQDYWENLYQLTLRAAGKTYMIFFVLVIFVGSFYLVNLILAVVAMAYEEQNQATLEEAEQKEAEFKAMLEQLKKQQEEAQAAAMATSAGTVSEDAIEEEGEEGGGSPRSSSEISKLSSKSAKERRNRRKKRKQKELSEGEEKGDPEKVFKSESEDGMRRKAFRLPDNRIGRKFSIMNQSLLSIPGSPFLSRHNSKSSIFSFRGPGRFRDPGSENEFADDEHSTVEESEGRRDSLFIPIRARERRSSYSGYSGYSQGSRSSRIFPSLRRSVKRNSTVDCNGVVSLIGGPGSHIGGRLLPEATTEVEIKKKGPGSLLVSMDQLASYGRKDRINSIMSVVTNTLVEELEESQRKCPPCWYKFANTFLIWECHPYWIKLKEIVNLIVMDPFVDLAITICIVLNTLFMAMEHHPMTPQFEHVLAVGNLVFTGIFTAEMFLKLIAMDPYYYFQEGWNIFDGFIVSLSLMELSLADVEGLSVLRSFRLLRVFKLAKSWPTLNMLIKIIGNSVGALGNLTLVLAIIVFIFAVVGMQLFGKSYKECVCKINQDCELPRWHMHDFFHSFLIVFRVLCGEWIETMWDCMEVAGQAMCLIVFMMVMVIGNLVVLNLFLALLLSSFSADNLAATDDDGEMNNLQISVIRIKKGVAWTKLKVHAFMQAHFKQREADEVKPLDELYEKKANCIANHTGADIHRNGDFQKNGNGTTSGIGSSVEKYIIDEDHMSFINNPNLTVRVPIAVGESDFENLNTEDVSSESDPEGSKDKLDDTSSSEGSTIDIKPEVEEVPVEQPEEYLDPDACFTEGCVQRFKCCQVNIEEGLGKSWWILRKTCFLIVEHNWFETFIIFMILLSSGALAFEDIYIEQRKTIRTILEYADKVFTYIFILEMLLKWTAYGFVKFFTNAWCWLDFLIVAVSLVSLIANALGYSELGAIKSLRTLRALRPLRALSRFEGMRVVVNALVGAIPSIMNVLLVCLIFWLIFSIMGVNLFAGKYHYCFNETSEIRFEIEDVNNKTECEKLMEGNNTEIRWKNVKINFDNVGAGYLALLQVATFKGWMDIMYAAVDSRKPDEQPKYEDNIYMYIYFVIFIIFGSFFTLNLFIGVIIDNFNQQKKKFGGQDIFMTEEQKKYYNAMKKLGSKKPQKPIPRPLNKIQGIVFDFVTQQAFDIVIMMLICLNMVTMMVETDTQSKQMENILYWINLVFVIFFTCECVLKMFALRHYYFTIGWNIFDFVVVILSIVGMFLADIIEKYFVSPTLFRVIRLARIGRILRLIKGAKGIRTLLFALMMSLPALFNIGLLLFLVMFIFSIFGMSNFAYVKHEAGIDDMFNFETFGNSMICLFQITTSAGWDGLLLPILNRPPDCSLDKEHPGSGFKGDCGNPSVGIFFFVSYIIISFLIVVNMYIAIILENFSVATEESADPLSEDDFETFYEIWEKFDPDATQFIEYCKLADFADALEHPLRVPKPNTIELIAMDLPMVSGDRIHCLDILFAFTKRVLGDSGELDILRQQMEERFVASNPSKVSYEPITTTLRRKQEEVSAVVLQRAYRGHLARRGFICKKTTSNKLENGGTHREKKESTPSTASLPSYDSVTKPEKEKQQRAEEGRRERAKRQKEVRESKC

Take `Cc1ccc(Oc2cccc(CN3CCC(C(=O)NCc4ccccn4)C3)c2)cc1` (centres unmarked) [Compound 1, 1-(3-p-Tolyloxy-benzyl)-pyrrolidine-3-carboxylic acid (pyridin-2-ylmethyl)-amide]: the IC50 is over 20 µM (read-out: Nav1.6 Tonic) and under 1 µM (read-out: Nav1.6 inac).

For the compound `COc1cccc(Oc2cccc(CN3CCC(C(=O)NCc4ccccn4)C3)c2)c1` (centres unmarked) [Compound 2, 1-[3-(3-Methoxy-phenoxy)-benzyl]-pyrrolidine-3-carboxylic acid (pyridin-2-ylmethyl)-amide], the IC50 was over 20 µM (read-out: Nav1.6 Tonic) and 1 to 5 µM (read-out: Nav1.6 inac).

`O=C(NCc1ccccn1)C1CCN(Cc2cccc(Oc3ccc(F)c(F)c3)c2)C1` (centres unmarked) [Compound 3, 1-[3-(3,4-Difluoro-phenoxy)-benzyl]-pyrrolidine-3-carboxylic acid (pyridin-2-ylmethyl)-amide]: the IC50 was over 20 µM (read-out: Nav1.6 Tonic) and 1 to 5 µM (read-out: Nav1.6 inac).

On to `O=C(NCc1ccccn1)C1CCN(Cc2cccc(Oc3ccccn3)c2)C1` (centres unmarked) [Compound 4, 1-[3-(Pyridin-2-yloxy)-benzyl]-pyrrolidine-3-carboxylic acid (pyridin-2-ylmethyl)-amide], for which the IC50 (read-out: Nav1.6 Tonic) lay within 10 to 20 µM and the IC50 (read-out: Nav1.6 inac) is under 1 µM.

For `O=C(NCc1ccccn1)C1CCN(Cc2cccc(Oc3cccc(C(F)(F)F)c3)c2)C1` (centres unmarked) [Compound 5, 1-[3-(3-Trifluoromethyl-phenoxy)-benzyl]-pyrrolidine-3-carboxylic acid (pyridin-2-ylmethyl)-amide], the IC50 is, setting by setting: (read-out: Nav1.6 Tonic) over 20 µM; (read-out: Nav1.6 inac) under 1 µM.

For `COc1ccc(Oc2cccc(CN3CCC(C(=O)NCc4ccccn4)C3)c2)cc1` (centres unmarked) [Compound 6, 1-[3-(4-Methoxy-phenoxy)-benzyl]-pyrrolidine-3-carboxylic acid (pyridin-2-ylmethyl)-amide], the IC50 (read-out: Nav1.6 Tonic) was over 20 µM and the IC50 (read-out: Nav1.6 inac) was over 5 µM.

Consider `COc1ccccc1Oc1cccc(CN2CCC(C(=O)NCc3ccccn3)C2)c1` (centres unmarked) [Compound 7, 1-[3-(2-Methoxy-phenoxy)-benzyl]-pyrrolidine-3-carboxylic acid (pyridin-2-ylmethyl)-amide], for which the IC50 is over 20 µM (read-out: Nav1.6 Tonic) and under 1 µM (read-out: Nav1.6 inac).

Consider `O=C(NCc1ccccn1)C1CCN(Cc2cccc(Oc3ccc(F)cc3F)c2)C1` (centres unmarked) [Compound 8, 1-[3-(2,4-Difluoro-phenoxy)-benzyl]-pyrrolidine-3-carboxylic acid (pyridin-2-ylmethyl)-amide], for which the IC50 is over 20 µM (read-out: Nav1.6 Tonic) and under 1 µM (read-out: Nav1.6 inac).

For `Cc1cc(C)cc(Oc2cccc(CN3CCC(C(=O)NCc4ccccn4)C3)c2)c1` (stereo not drawn) [Compound 9, l-[3-(3,5-Dimethyl-phenoxy)-benzyl]-pyrrolidine-3-carboxylic acid (pyridin-2-ylmethyl)-amide], the IC50 (read-out: Nav1.6 Tonic) was over 20 µM and the IC50 (read-out: Nav1.6 inac) was under 1 µM.

For `Cc1ccc(Oc2cccc(CN3CCC(C(=O)NCc4ccccn4)C3)c2)cc1C` (centres unmarked) [Compound 10, 1-[3-(3,4-Dimethyl-phenoxy)-benzyl]-pyrrolidine-3-carboxylic acid (pyridin-2-ylmethyl)-amide], the IC50 fell in the range of 10 to 20 µM (read-out: Nav1.6 Tonic) and 1 to 5 µM (read-out: Nav1.6 inac).

As for `O=C(NCc1ccccn1)C1CCN(Cc2cccc(Oc3cccc(F)c3)c2)C1` (centres unmarked) [Compound 11, 1-[3-(3-Fluoro-phenoxy)-benzyl]-pyrrolidine-3-carboxylic acid (pyridin-2-ylmethyl)-amide], the IC50 is, setting by setting: (read-out: Nav1.6 Tonic) 10 to 20 µM; (read-out: Nav1.6 inac) under 1 µM.

Consider `O=C(NCc1ccccn1)C1CCN(Cc2cccc(Oc3cccnc3)c2)C1` (centres unmarked) [Compound 12, 1-[3-(Pyridin-3-yloxy)-benzyl]-pyrrolidine-3-carboxylic acid (pyridin-2-ylmethyl)-amide], for which the IC50 is over 20 µM (read-out: Nav1.6 Tonic) and 1 to 5 µM (read-out: Nav1.6 inac).

`O=C(NCc1ccccn1)C1CCN(Cc2cccc(Oc3ccc(F)cc3)c2)C1` (centres unmarked) [Compound 13, 1-[3-(4-Fluoro-phenoxy)-benzyl]-pyrrolidine-3-carboxylic acid (pyridin-2-ylmethyl)-amide]: the IC50 is over 20 µM (read-out: Nav1.6 Tonic) and under 1 µM (read-out: Nav1.6 inac).

Consider `O=C(NCc1ccccn1)C1CCN(Cc2cccc(Oc3ccccc3F)c2)C1` (centres unmarked) [Compound 14, 1-[3-(2-Fluoro-phenoxy)-benzyl]-pyrrolidine-3-carboxylic acid (pyridin-2-ylmethyl)-amide], for which the IC50 is, setting by setting: (read-out: Nav1.6 Tonic) over 20 µM; (read-out: Nav1.6 inac) over 5 µM.

Regarding `O=C(NCc1ccccn1)C1CCN(Cc2ccc(F)c(Oc3ccccc3)c2)C1` (centres unmarked) [Compound 15, 1-(4-Fluoro-3-phenoxy-benzyl)-pyrrolidine-3-carboxylic acid (pyridin-2-ylmethyl)-amide], the IC50 by setting is: (read-out: Nav1.6 Tonic) over 20 µM; (read-out: Nav1.6 inac) over 5 µM.

Regarding `Cc1cncc(Oc2cccc(CN3CCC(C(=O)NCc4ccccn4)C3)c2)n1` (centres unmarked) [Compound 18, 1-[3-(6-Methyl-pyrazin-2-yloxy)-benzyl]-pyrrolidine-3-carboxylic acid (pyridin-2-ylmethyl)-amide], the IC50 (read-out: Nav1.6 Tonic) was over 20 µM and the IC50 (read-out: Nav1.6 inac) was over 5 µM.

Take `COc1ccc(Oc2cccc(CN3CCC(C(=O)NCc4ccccn4)C3)n2)cc1` (centres unmarked) [Compound 19, 1-[6-(4-Methoxy-phenoxy)-pyridin-2-ylmethyl]-pyrrolidine-3-carboxylic acid (pyridin-2-ylmethyl)-amide]: the IC50 was over 20 µM (read-out: Nav1.6 Tonic) and 1 to 5 µM (read-out: Nav1.6 inac).

Consider `O=C(NCc1ccccn1)C1CCN(Cc2cccc(Oc3ccc(F)cc3)n2)C1` (centres unmarked) [Compound 20, 1-[6-(4-Fluoro-phenoxy)-pyridin-2-ylmethyl]-pyrrolidine-3-carboxylic acid (pyridin-2-ylmethyl)-amide], for which the IC50 is over 20 µM (read-out: Nav1.6 Tonic) and over 5 µM (read-out: Nav1.6 inac).

With `Cc1cccc(Oc2cccc(CN3CCC(F)(C(=O)NCc4ccccn4)C3)c2)c1` (centres unmarked) [Compound 21, 3-Fluoro-1-(3-m-tolyloxy-benzyl)-pyrrolidine-3-carboxylic acid (pyridin-2-ylmethyl)-amide], the IC50 was over 20 µM (read-out: Nav1.6 Tonic) and 1 to 5 µM (read-out: Nav1.6 inac).

`Cc1ccc(Oc2cccc(CN3CCC(F)(C(=O)NCc4ccccn4)C3)c2)cc1` (centres unmarked) [Compound 22, 3-Fluoro-1-(3-p-tolyloxy-benzyl)-pyrrolidine-3-carboxylic acid (pyridin-2-ylmethyl)-amide]: the IC50 is over 20 µM (read-out: Nav1.6 Tonic) and 1 to 5 µM (read-out: Nav1.6 inac).

`COc1cccc(Oc2cccc(CN3CCC(F)(C(=O)NCc4ccccn4)C3)c2)c1` (centres unmarked) [Compound 23, 3-Fluoro-1-[3-(3-methoxy-phenoxy)-benzyl]-pyrrolidine-3-carboxylic acid (pyridin-2-ylmethyl)-amide]: the IC50 was over 20 µM (read-out: Nav1.6 Tonic) and 1 to 5 µM (read-out: Nav1.6 inac).

As to `O=C(NCc1ccccn1)C1(F)CCN(Cc2cccc(Oc3ccc(F)c(F)c3)c2)C1` (centres unmarked) [Compound 24, 1-[3-(3,4-Difluoro-phenoxy)-benzyl]-3-fluoro-pyrrolidine-3-carboxylic acid (pyridin-2-ylmethyl)-amide], the IC50 is over 20 µM (read-out: Nav1.6 Tonic) and 1 to 5 µM (read-out: Nav1.6 inac).

With `O=C(NCc1ccccn1)C1(F)CCN(Cc2cccc(Oc3cccc(C(F)(F)F)c3)c2)C1` (centres unmarked) [Compound 25, 3-Fluoro-1-[3-(3-trifluoromethyl-phenoxy)-benzyl]-pyrrolidine-3-carboxylic acid (pyridin-2-ylmethyl)-amide], the IC50 reads like this: (read-out: Nav1.6 Tonic) over 20 µM; (read-out: Nav1.6 inac) 1 to 5 µM.

As for `CC(C)c1ccc(Oc2cccc(CN3CCC(F)(C(=O)NCc4ccccn4)C3)c2)cc1` (centres unmarked) [Compound 26, 3-Fluoro-1-[3-(4-isopropyl-phenoxy)-benzyl]-pyrrolidine-3-carboxylic acid (pyridin-2-ylmethyl)-amide], the IC50 runs as follows: (read-out: Nav1.6 Tonic) over 20 µM; (read-out: Nav1.6 inac) 1 to 5 µM.

Consider `CC1(C(=O)NCc2ccccn2)CCN(Cc2cccc(Oc3ncccn3)c2)C1` (centres unmarked) [Compound 27, 3-Methyl-1-[3-(pyrimidin-2-yloxy)-benzyl]-pyrolidine-3-carboxylic acid (pyridin-2-ylmethyl)-amide], for which the IC50 is, setting by setting: (read-out: Nav1.6 Tonic) over 20 µM; (read-out: Nav1.6 inac) over 5 µM.

In the case of `CC(C)COc1cccc(CN2CCC(Cn3ccnc3)C2)c1` (centres unmarked) [Compound 28, 1-[1-(3-Isobutoxy-benzyl)-pyrrolidin-3-ylmethyl]-1H-imidazole], the IC50 is over 20 µM (read-out: Nav1.6 Tonic) and under 1 µM (read-out: Nav1.6 inac).

Take `O=C(NCc1ccccn1)C1CCN(Cc2cccc(-c3ccccc3)c2)C1` (centres unmarked) [Compound 29, 1-Biphenyl-3-ylmethyl-pyrrolidine-3-carboxylic acid (pyridin-2-ylmethyl)-amide]: the IC50 reads like this: (read-out: Nav1.6 Tonic) 10 to 20 µM; (read-out: Nav1.6 inac) 1 to 5 µM.

For the compound `O=C(NCc1ccccn1)C1CCN(Cc2cccc(OCC(F)(F)F)c2)C1` (centres unmarked) [Compound 30, 1-[3-(2,2,2-Trifluoro-ethoxy)-benzyl]-pyrrolidine-3-carboxylic acid (pyridin-2-ylmethyl)-amide], the IC50 was over 20 µM (read-out: Nav1.6 Tonic) and under 1 µM (read-out: Nav1.6 inac).
